Data published in patent US9732078B2, “Therapeutic use of imidazopyridine derivatives” (SANOFI, priority 2012, dated 2017).
Counter-ions that a name gives are not always drawn.

Tests used:
[1] = tested on: TCC97-7 bladder cancer cells carrying the Ser249Cys mutation of FGF receptor 3; experiment: Reduction of intracellular ATP content of TCC97-7 cells (Cell Titer-Glo, 3 days, serum-supplemented medium); assay type: cell-based; settings: 72 h, TCC97-7 cells in presence of serum, read-out: Inhibition of the amount of intracellular ATP (%)
Experimental: Evaluation of the Capacity of the FGF-R Antagonists to Reduce the ATP Content of TCC97-7 Bladder Cancer Cells Carrying the Ser249Cys Mutation of FGF Receptor 3, Cultured in a Serum-Supplemented Medium
To do this, 3000 cells are seeded in 50 μl of complete medium (Ham-F/12, 1% FCS, […], non-essential amino acids, sodium pyruvate, 1% insulin/transferrin/selenium, hydrocortisone). 16 hours later, 50 μl of the various compounds are added at 0.2, 2, 20 and 60 μM after dilution in complete culture medium in order to obtain final concentrations of 0.1, 1, 10 and 30 μM. After 3 days, the ATP content of the cells is measured using the Cell Titer-Glo® Luminescent Cell Viability Assay kit (Promega, France) according to the supplier's recommendations. The percentage inhibition of the amount of intracellular ATP is calculated by considering the ATP content of the cells cultured in the absence of antagonist to be 0% inhibition. 100% inhibition would correspond to a well in which the ATP content is zero.

[2] = tested on: TCC97-7 bladder cancer tumour cells carrying the Ser249Cys mutation of FGF receptor 3; experiment: Inhibition of serum-induced proliferation of TCC97-7 bladder cancer cells (count of Hoechst 33342-labelled nuclei after 3 days); assay type: cell-based; settings: 72 h, TCC97-7 cells in presence of serum
Experimental: To do this, 2000 cells are seeded in the morning in 50 μl of complete medium (Ham-F/12, 1% FCS, 2 mM glutamine, non-essential amino acids, sodium pyruvate, 1% insulin/transferrin/selenium, hydrocortisone). In the evening, 50 μl of the various compounds are added at 0.02, 0.2, 2 or 20 μM after dilution in complete culture medium in order to obtain final concentrations of 0.01, 0.1, 1 and 10 μM. After 3 days, the cell proliferation is evaluated by measuring the number of nuclei at the bottom of each well corresponding to a number of cells. The nuclei are detected by means of labelling with Hoechst 33342 (Invitrogen, ref H3570). 100 μl of Hoechst 33342 diluted to 1/5000th in PBS are added to each well for 30 min at ambient temperature on non-fixed cells. The nuclei are detected by fluorescence at 350 nm at ×2 magnification with an Operetta (PerkinElmer) using the Acapella (PerkinElmer) imaging software and analysed using the Columbus (PerkinElmer) image analysis software. The percentage inhibition of the cell proliferation is calculated by considering the number of nuclei present in the wells in which the TCC97-7 cells are cultured in the absence of FGF-R antagonists to be 0% inhibition. 100% inhibition would correspond to a well no longer containing cells.

[3] = Cytotoxic effect: percentage of permeabilized (very fluorescent, Hoechst 33342) TCC97-7 cells; assay type: cell-based; settings: human, read-out: Cytotoxicity (% of permeable cells)
Experimental: In parallel to their antiproliferative capacity, the potential cytotoxic effect of the FGF-R antagonists is measured by means of quantifying the number of cells of which the membranes are permeabilized. The appearance of pores in the plasma membrane of the cells corresponds to a state of cell death which enables the Hoechst 33342 to penetrate more easily into the cell. This is reflected by a very strong increase in the amount of fluorescence detected in the nuclei. The percentage of cells in a state of cell death is calculated by the ratio between the number of very fluorescent nuclei to the total number of nuclei, multiplied by 100. The observations are carried out in the same way as the quantification of the nuclei for the cell proliferation.

With `Cl.Cn1c(=O)n(Cc2ccc(F)cc2)c(=O)c2cc(C(=O)c3nc(-c4cccc(C(=O)OCCN5CCOCC5)c4)c4ccccn34)ccc21` the melting point was 215 °C.
`Cn1c(=O)n(Cc2ccc(F)cc2)c(=O)c2cc(C(=O)c3nc(-c4cccnc4)c4ccccn34)ccc21` (as salt: hydrochloride) [compound 112, 3-(4-Fluorobenzyl)-1-methyl-6-[(1-pyridin-3-ylimidazo[1,5-a]pyridin-3-yl)carbonyl]quinazoline-2,4(1H, 3H)-dione] showed a melting point of 267 °C.
For `O=C(c1ccc2nc[nH]c(=O)c2c1)c1ncc2ccccn12` [compound 3, 6-(Imidazo[1,5-a]pyridin-3-ylcarbonyl)quinazolin-4(3H)-one], the melting point was 289 °C.
Work on `CCCn1c(=O)[nH]c2ccc(C(=O)c3ncc4ccc(C(=O)O)cn34)cc2c1=O` [compound 8, 3-[(2,4-Dioxo-3-propyl-1,2,3,4-tetrahydroquinazolin-6-yl)carbonyl]imidazo[1,5-a]pyridine-6-carboxylic acid] yielded a melting point of 384 °C.
`CCCn1c(=O)[nH]c2ccc(C(=O)c3nc(NS(C)(=O)=O)c4ccccn34)cc2c1=O` [compound 13, N-{3-[(2,4-dioxo-3-propyl-1,2,3,4-tetrahydroquinazolin-6-yl)carbonyl]imidazo[1,5-a]pyridin-1-yl}methanesulphonamide] gave a melting point of 334 °C.
Molecule `CCCn1c(=O)[nH]c2ccc(C(=O)c3nc(-c4cccc(C(N)=O)c4)c4ccccn34)cc2c1=O` [compound 29, 3-{3[(2,4-Dioxo-3-propyl-1,2,3,4-tetrahydroquinazolin-6-yl)carbonyl]imidazo[1,5-a]pyridin-1-yl}benzamide] has an inhibition at 0.1 µM [1] of -4%, an inhibition at 1 µM [1] of 8% and an inhibition at 10 µM [1] of 24%. The inhibition at 0.01 µM [2] was 6%, the inhibition at 0.1 µM [2] was 9% and the inhibition at 1 µM [2] was 45%. For the same molecule, the inhibition at 10 µM [2] was 71%, the cytotoxicity at 3 days, 0.01 µM [3] was 3% and the cytotoxicity at 3 days, 0.1 µM [3] was 3%. For the same molecule, the cytotoxicity at 3 days, 1 µM [3] was 8% and the cytotoxicity at 3 days, 10 µM [3] was 17%.
`CCCn1c(C)nc2ccc(C(=O)c3nc(-c4cccc(C(N)=O)c4)c4ccccn34)cc2c1=O` [compound 55, 3-{3-[(2-Methyl-4-oxo-3-propyl-3,4-dihydroquinazolin-6-yl)carbonyl]imidazo[1,5-a]pyridin-1-yl}benzamide] showed an inhibition at 0.1 µM [1] of 11%, an inhibition at 1 µM [1] of 17% and an inhibition at 10 µM [1] of 57%. The inhibition at 0.01 µM [2] was 3%, the inhibition at 0.1 µM [2] was -2% and the inhibition at 1 µM [2] was 29%. It also gave an inhibition at 10 µM [2] of 47%, a cytotoxicity at 3 days, 0.01 µM [3] of 5% and a cytotoxicity at 3 days, 0.1 µM [3] of 5%. For the same molecule, the cytotoxicity at 3 days, 1 µM [3] was 6% and the cytotoxicity at 3 days, 10 µM [3] was 6%.
